# Literature values, collected in PubChem BioAssay AID1259409 (Chemical Carcinogenesis Research Information System (CCRIS), 2018).
# System: rodent chemically induced tumor inhibition, incidence and multiplicity
# Assay: CCRIS tumor inhibitor studies
# Settings: 10108-64-2, Species: RAT, Strain/Sex: WISTAR/MALE, Dose [Carcinogen]: 30 UMOL/KG IN 0.9% STERILE SALINE ONCE, Promoter: NONE USED
compound,measurement,setting,value
CC(=O)[O-].CC(=O)[O-].O.O.[Zn+2],"tumour outcome (control, treated, inhibition, significance)","Carcinogen: CADMIUM CHLORIDE, Dose [Inhibitor]: 0.1 MMOL/KG IN 0.9% STERILE SALINE ADMINISTERED IN 3 SEPARATE DOSES AT 6 HR PRIOR TO, CONCURRENTLY WITH AND 18 HR POST C, Route [Inhibitor]: SUBCUTANEOUS, Target Tissue: Type of Lesion: PROSTATE GLAND: ADENOMA","7/30 (23%), 6/30 (20%), 13%, not calculated"
same,"tumour outcome (control, treated, inhibition, significance)","Carcinogen: CADMIUM CHLORIDE, Dose [Inhibitor]: 0.3 MMOL/KG IN 0.9% STERILE SALINE ADMINISTERED IN 3 SEPARATE DOSES AT 6 HR PRIOR TO, CONCURRENTLY WITH AND 18 HR POST C, Route [Inhibitor]: SUBCUTANEOUS, Target Tissue: Type of Lesion: PROSTATE GLAND: ADENOMA","7/30 (23%), 5/28 (18%), 22%, not calculated"
same,"tumour outcome (control, treated, inhibition, significance)","Carcinogen: CADMIUM CHLORIDE, Dose [Inhibitor]: 1.0 MMOL/KG IN 0.9% STERILE SALINE ADMINISTERED IN 3 SEPARATE DOSES AT 6 HR PRIOR TO, CONCURRENTLY WITH AND 18 HR POST C, Route [Inhibitor]: SUBCUTANEOUS, Target Tissue: Type of Lesion: PROSTATE GLAND: ADENOMA","11/26 (42%), 7/28 (25%), 40%, not calculated"
same,"tumour outcome (control, treated, inhibition, significance)","Carcinogen: CADMIUM CHLORIDE, Dose [Inhibitor]: 100 PPM IN DRINKING WATER BEGINNING 2 WK PRIOR TO CARCINOGEN DOSE AND CONTINUING FOR DURATION OF STUDY (STUDY DURATION:, Route [Inhibitor]: ORAL, Target Tissue: Type of Lesion: PROSTATE GLAND: ADENOMA","7/30 (23%), 7/30 (23%), 0%"
same,"tumour outcome (control, treated, inhibition, significance)","Carcinogen: CADMIUM(II) CHLORIDE, Dose [Inhibitor]: 0.1 MMOL/KG IN 0.9% STERILE SALINE ADMINISTERED IN 3 SEPARATE DOSES AT 6 HR PRIOR TO CARCINOGEN DOSE, CONCURRENTLY WITH, Route [Inhibitor]: SUBCUTANEOUS, Target Tissue: Type of Lesion: INJECTION SITE: SARCOMA OR EPIDERMAL TUMOR","13/30 (43%), 9/30 (30%), 30%, not calculated"
same,"tumour outcome (control, treated, inhibition, significance)","Carcinogen: CADMIUM(II) CHLORIDE, Dose [Inhibitor]: 0.1 MMOL/KG IN 0.9% STERILE SALINE ADMINISTERED IN 3 SEPARATE DOSES AT 6 HR PRIOR TO CARCINOGEN DOSE, CONCURRENTLY WITH, Route [Inhibitor]: SUBCUTANEOUS, Target Tissue: Type of Lesion: TESTES: LEYDIG CELL ADENOMA OR MIXED SERTOLI-LEYDIG CELL TUMOR","22/30 (73%), 23/30 (77%), -5%, not calculated"
same,"tumour outcome (control, treated, inhibition, significance)","Carcinogen: CADMIUM(II) CHLORIDE, Dose [Inhibitor]: 0.3 MMOL/KG IN 0.9% STERILE SALINE ADMINISTERED IN 3 SEPARATE DOSES AT 6 HR PRIOR TO CARCINOGEN DOSE, CONCURRENTLY WITH, Route [Inhibitor]: SUBCUTANEOUS, Target Tissue: Type of Lesion: INJECTION SITE: SARCOMA","13/30 (43%), 10/29 (34%), 21%, not calculated"
same,"tumour outcome (control, treated, inhibition, significance)","Carcinogen: CADMIUM(II) CHLORIDE, Dose [Inhibitor]: 0.3 MMOL/KG IN 0.9% STERILE SALINE ADMINISTERED IN 3 SEPARATE DOSES AT 6 HR PRIOR TO CARCINOGEN DOSE, CONCURRENTLY WITH, Route [Inhibitor]: SUBCUTANEOUS, Target Tissue: Type of Lesion: TESTES: LEYDIG CELL ADENOMA","22/30 (73%), 14/29 (48%), 34%, not calculated"
same,"tumour outcome (control, treated, inhibition, significance)","Carcinogen: CADMIUM(II) CHLORIDE, Dose [Inhibitor]: 1.0 MMOL/KG IN 0.9% STERILE SALINE ADMINISTERED IN 3 SEPARATE DOSES AT 6 HR PRIOR TO CARCINOGEN DOSE, CONCURRENTLY WITH, Route [Inhibitor]: SUBCUTANEOUS, Target Tissue: Type of Lesion: INJECTION SITE: SARCOMA OR HEMANGIOMA OR EPIDERMAL TUMOR","13/30 (43%), 9/29 (31%), 28%, not calculated"
same,"tumour outcome (control, treated, inhibition, significance)","Carcinogen: CADMIUM(II) CHLORIDE, Dose [Inhibitor]: 1.0 MMOL/KG IN 0.9% STERILE SALINE ADMINISTERED IN 3 SEPARATE DOSES AT 6 HR PRIOR TO CARCINOGEN DOSE, CONCURRENTLY WITH, Route [Inhibitor]: SUBCUTANEOUS, Target Tissue: Type of Lesion: INJECTION SITE: SARCOMA","3/29 (10%), 1/29 (3%), 70%, not calculated"
same,"tumour outcome (control, treated, inhibition, significance)","Carcinogen: CADMIUM(II) CHLORIDE, Dose [Inhibitor]: 1.0 MMOL/KG IN 0.9% STERILE SALINE ADMINISTERED IN 3 SEPARATE DOSES AT 6 HR PRIOR TO CARCINOGEN DOSE, CONCURRENTLY WITH, Route [Inhibitor]: SUBCUTANEOUS, Target Tissue: Type of Lesion: TESTES: LEYDIG CELL ADENOMA OR SEMINOMA","4/29 (14%), 7/30 (23%), -64%, not calculated"
same,"tumour outcome (control, treated, inhibition, significance)","Carcinogen: CADMIUM(II) CHLORIDE, Dose [Inhibitor]: 1.0 MMOL/KG IN 0.9% STERILE SALINE ADMINISTERED IN 3 SEPARATE DOSES AT 6 HR PRIOR TO CARCINOGEN DOSE, CONCURRENTLY WITH, Route [Inhibitor]: SUBCUTANEOUS, Target Tissue: Type of Lesion: TESTES: LEYDIG CELL ADENOMA","22/30 (73%), 3/28 (11%), 85%, not calculated"
same,"tumour outcome (control, treated, inhibition, significance)","Carcinogen: CADMIUM(II) CHLORIDE, Dose [Inhibitor]: 100 PPM IN DRINKING WATER BEGINNING 2 WK PRIOR TO CARCINOGEN DOSE AND CONTINUING FOR DURATION OF STUDY (STUDY DURATION:, Route [Inhibitor]: ORAL, Target Tissue: Type of Lesion: INJECTION SITE: SARCOMA AND FIBROMA","13/30 (43%), 1/30 (3%), 93%, not calculated"
same,"tumour outcome (control, treated, inhibition, significance)","Carcinogen: CADMIUM(II) CHLORIDE, Dose [Inhibitor]: 100 PPM IN DRINKING WATER BEGINNING 2 WK PRIOR TO CARCINOGEN DOSE AND CONTINUING FOR DURATION OF STUDY (STUDY DURATION:, Route [Inhibitor]: ORAL, Target Tissue: Type of Lesion: TESTES: LEYDIG CELL ADENOMA","22/30 (73%), 25/30 (83%), -14%, not calculated"
